Legend:
human whole blood [1] = experiment: Circuit patency / clot formation in simulated neonatal roller pump ECMO circuit (Trial 1); conditions: for circuits with sustained patency after six hours: heparin 0.5 U/mL with or without roflumilast, 3/4 vs 2/7 circuits
Source text: (§1) Whole blood was collected from healthy adults under an U.S. Army Institute of Surgical Research approved standard operating procedure. A simulated neonatal roller pump with a KIDS D100 oxygenator circulated human whole blood at a low or nominal flow rate ([…] and 0.5 L/min) for six hours or until clot formation caused device failure. Samples were collected hourly from the ECMO model that received heparin alone or heparin plus roflumilast (a PDE4 inhibitor). Expression of pro-thrombotic proteins on leukocytes and extracellular vesicles (EV) were measured with high-resolution flow cytometry. Coagulation factor activity, platelet counts, time to thrombin generation, peak thrombin, and endogenous thrombin potential were quantified.
(§2) Whole blood was collected from healthy adult humans into a blood transfer bag containing 0.5 U/mL of heparin with or without roflumilast at 0.01 microgram per mL, under an approved protocol by the U.S. Army Institute of Surgical Research. The blood was then circulated through a roller pump circuit for six hours or until clot formation occurred that prevented forward flow through the circuit. As a control, an aliquot of static blood was removed after priming the circuit and maintained in a similar test environment without circuitry.
(§3) Samples were collected hourly from the roller pump circuit, which circulated blood treated with either heparin only or heparin plus roflumilast, at nominal flow rates (0.5 L/min). The expression of pro-thrombotic phospholipids and proteins on platelets, leukocytes, and extracellular vesicles (EV) was measured using high-resolution flow cytometry. Additionally, thromboelastography (TEG) and coagulation indices were used to assess coagulopathy, and a calibrated automated thrombogram was employed to measure differences in whole blood TEG between the roflumilast-treated and heparin-only samples.

thrombin generation = experiment: Thrombin generation (calibrated automated thrombogram) in roller pump ECMO circuit (Trial 1); parameters: species or system human; conditions: for time to thrombin generation: at the 3-hour time point, p<0.04; for time to thrombin generation / peak thrombin generation: heparin with or without roflumilast; for peak thrombin generation: p<0.02
Source text: as §1, §2, §3

human whole blood [2] = experiment: Clot formation (d-dimer) and plasminogen activating inhibitor in simulated Cardiohelp HTS in vitro ECMO system (Trial 2); conditions: after five hours of circulation, low flow rate (1 L/min); for clot formation as measured by d-dimer: heparin with or without roflumilast, p<0.04
Source text: (§4) Whole blood was collected from healthy adults under an US Army Institution of Surgeryal Review Board approved protocol. A simulated Cardiohelp HTS in vitro ECMO system with a double-lumen veno-venous catheter circulated human whole blood at a low flow rate (1 L/min) for six hours or until clot formation caused device failure. Samples were collected hourly from the ECMO model that received heparin alone or heparin plus roflumilast (a PDE4 inhibitor). Expression of pro-thrombotic proteins on leukocytes and extracellular vesicles (EV) were measured with high-resolution flow cytometry. Coagulation factor activity, platelet counts, time to thrombin generation, peak thrombin, and endogenous thrombin potential were quantified.

[3] = system: platelets, leukocytes, and extracellular vesicles (EV); experiment: High-resolution flow cytometry of pro-thrombotic proteins in roller pump ECMO circuit (Trial 1); type: cell-based, human
Source text: (§5) Whole blood was collected from healthy adults under an U.S. Army Institute of Surgical Research approved standard operating procedure. A simulated neonatal roller pump with a KIDS D100 oxygenator circulated human whole blood at a low or nominal flow rate ([…] and 0.5 L/min) for six hours or until clot formation caused device failure. Samples were collected hourly from the ECMO model that received heparin alone or heparin plus roflumilast (a PDE4 inhibitor). Expression of pro-thrombotic proteins on leukocytes and extracellular vesicles (EV) were measured with high-resolution flow cytometry. Coagulation factor activity, platelet counts, time to thrombin generation, peak thrombin, and endogenous thrombin potential were quantified. Whole blood was collected from healthy adult humans into a blood transfer bag containing 0.5 U/mL of heparin with or without roflumilast at 0.01 microgram per mL, under an approved protocol by the U.S. Army Institute of Surgical Research. The blood was then circulated through a roller pump circuit for six hours or until clot formation occurred that prevented forward flow through the circuit. As a control, an aliquot of static blood was removed after priming the circuit and maintained in a similar test environment without circuitry. Samples were collected hourly from the roller pump circuit, which circulated blood treated with either heparin only or heparin plus roflumilast, at nominal flow rates (0.5 L/min). The expression of pro-thrombotic phospholipids and proteins on platelets, leukocytes, and extracellular vesicles (EV) was measured using high-resolution flow cytometry. Additionally, thromboelastography (TEG) and coagulation indices were used to assess coagulopathy, and a calibrated automated thrombogram was employed to measure differences in whole blood TEG between the roflumilast-treated and heparin-only samples.

leukocytes = experiment: Leukocyte activation measured by TNF-alpha in roller pump ECMO circuit (Trial 1); type: cell-based, human; conditions: nominal flow rate (0.5 L/min), six hours; heparin with Roflumilast
Source text: as §5, with “circuitry.” for “circuitry. Samples were collected hourly from the roller pump circuit, which circulated blood treated with either heparin only or heparin plus roflumilast, at nominal flow rates (0.5 L/min). The expression of pro-thrombotic phospholipids and proteins on platelets, leukocytes, and extracellular vesicles (EV) was measured using high-resolution flow cytometry. Additionally, thromboelastography (TEG) and coagulation indices were used to assess coagulopathy, and a calibrated automated thrombogram was employed to measure differences in whole blood TEG between the roflumilast-treated and heparin-only samples.”

human whole blood [4] = experiment: Thromboinflammation markers in simulated Cardiohelp HTS in vitro ECMO system (Trial 2); type: cell-based; conditions: roflumilast added to heparin vs heparin alone; preliminary results
Source text: as §4

[5] = system: neutrophils and monocytes; conditions: Totani et al (J. Thromb Haemost. 2016); cited from earlier work
monocyte = conditions: cell culture experiments; cited from earlier work
[6] = in vitro ECMO experiments with roflumilast

Row | Compound | circuits with sustained patency after six hours (human whole blood [1]) [%] | time to thrombin generation (thrombin generation) [min] | peak thrombin generation (thrombin generation) [nm] | clot formation as measured by d-dimer (human whole blood [2]) [µg/mL] | clot formation (in vitro ECMO experiments, summary) (human whole blood [1]; [6]) | Monocytes expression of tissue factor ([3]; low flow (0.3 L/min) vs low flow with Roflumilast, p<0.05) | P-selection expression ([3]; low flow (0.3 L/min) with Roflumilast vs nominal and low flow, over six hours, p<0.05) | extracellular leukocytes expressing tissue factor ([3]; roller pump circuit, heparin plus roflumilast) | thrombin generation (in vitro ECMO experiments, summary) (thrombin generation; [6]) | Peak thrombin (comparison in words) (thrombin generation; nominal flow rate (0.5 L/min), six hours, heparin only vs leukodepleted or roflumilast and heparin, p<0.05) | lag time (thrombin generation) (thrombin generation; over six hours of circulation, heparin vs heparin with Roflumilast) | leukocyte activation as measured by TNF-alpha (leukocytes) | increase in plasminogen activating inhibitor levels, more than heparin alone (human whole blood [2]; roflumilast added to heparin, p<0.03) [fold] | monocyte activation (thromboinflammation) (human whole blood [4]) | myeloperoxidase (thromboinflammation) (human whole blood [4]) | p-selectin (thromboinflammation) (human whole blood [4]) | pro-thrombotic functions of neutrophils and monocytes [5] | monocyte activation of tissue factor (monocyte)
1 | heparin | 28 | 6.8 | 207 | 0.49 ± 0.08 | – | – | – | – | – | – | – | – | – | – | – | – | – | –
2 | O=C(Nc1c(Cl)cncc1Cl)c1ccc(OC(F)F)c(OCC2CC2)c1 [roflumilast] | 75 | 13.9 | 69 | 0.30 ± 0.06 | decreased | increased more at low flow than circuits treated with | significantly inhibited | decreased | decreased | increased significantly more in heparin only | decreased lag time over six hours of circulation less than roflumilast treated circuits | inhibited leukocyte activation | 1.6 | less | less | less | prevents | decreases
